Source: patent US11767310B2, “Nicotinamide RIPK1 inhibitors” (AbbVie Inc., priority 2021, dated 2023)
Where two headings read alike, the source gives them in different places.

Legend:
Experiment in all cases: Kinase binding screen
Conditions in all cases: read-out: Percent Control at 100 nM Compound Concentration
SRPK3 = SRPK3 (Homo sapiens (Human), UniProt Q9UPE1)
FGFR4 = FGFR4 (Homo sapiens (Human), UniProt P22455)
ALK = ALK (Homo sapiens (Human), UniProt Q9UM73)
CLK4 = CLK4 (Homo sapiens (Human), UniProt Q9HAZ1)
[1] = target: ABL1(E255K)-phosphorylated (Homo sapiens (Human), UniProt P00519, E255K)
ABL1(E255K)-phosphorylated, sequence (P00519 whole entry E255K): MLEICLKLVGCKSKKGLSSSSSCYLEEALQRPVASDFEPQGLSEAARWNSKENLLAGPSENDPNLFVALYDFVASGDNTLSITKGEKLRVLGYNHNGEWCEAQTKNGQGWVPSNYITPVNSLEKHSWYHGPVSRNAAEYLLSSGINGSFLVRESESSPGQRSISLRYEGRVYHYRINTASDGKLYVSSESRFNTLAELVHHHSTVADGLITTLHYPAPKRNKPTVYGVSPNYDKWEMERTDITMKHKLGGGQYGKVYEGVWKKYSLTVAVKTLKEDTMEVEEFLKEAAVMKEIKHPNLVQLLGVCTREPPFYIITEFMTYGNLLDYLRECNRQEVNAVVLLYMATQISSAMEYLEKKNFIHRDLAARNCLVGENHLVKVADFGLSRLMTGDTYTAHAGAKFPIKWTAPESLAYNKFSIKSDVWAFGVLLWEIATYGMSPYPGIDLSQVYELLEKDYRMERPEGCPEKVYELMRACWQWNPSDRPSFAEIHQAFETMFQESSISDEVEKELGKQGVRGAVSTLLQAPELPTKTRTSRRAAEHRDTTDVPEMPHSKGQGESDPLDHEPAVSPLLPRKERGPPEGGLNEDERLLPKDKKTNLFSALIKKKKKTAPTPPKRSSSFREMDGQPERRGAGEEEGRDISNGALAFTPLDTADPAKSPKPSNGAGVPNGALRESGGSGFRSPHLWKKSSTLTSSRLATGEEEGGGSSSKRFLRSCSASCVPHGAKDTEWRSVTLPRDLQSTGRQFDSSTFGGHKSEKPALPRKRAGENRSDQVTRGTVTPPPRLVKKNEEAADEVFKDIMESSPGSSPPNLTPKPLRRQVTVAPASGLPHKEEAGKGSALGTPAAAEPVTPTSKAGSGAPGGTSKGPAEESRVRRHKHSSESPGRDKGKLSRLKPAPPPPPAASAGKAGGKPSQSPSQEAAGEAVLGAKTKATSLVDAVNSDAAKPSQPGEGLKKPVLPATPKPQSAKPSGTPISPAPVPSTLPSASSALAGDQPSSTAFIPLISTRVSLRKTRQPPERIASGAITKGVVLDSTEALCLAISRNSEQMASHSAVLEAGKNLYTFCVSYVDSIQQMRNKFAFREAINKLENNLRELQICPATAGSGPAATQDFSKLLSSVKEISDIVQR

PIK3CA(C420R) = PIK3CA(C420R) (Homo sapiens (Human), UniProt P42336, C420R)
BLK = BLK (Homo sapiens (Human), UniProt P51451)
CDKL3 = CDKL3 (Homo sapiens (Human), UniProt Q8IVW4)
CSNK1G1 = CSNK1G1 (Homo sapiens (Human), UniProt Q9HCP0)
PIK3CA = PIK3CA (Homo sapiens (Human), UniProt P42336)
PDPK1 = PDPK1 (Homo sapiens (Human), UniProt O15530)
PDPK1, sequence (O15530 whole entry): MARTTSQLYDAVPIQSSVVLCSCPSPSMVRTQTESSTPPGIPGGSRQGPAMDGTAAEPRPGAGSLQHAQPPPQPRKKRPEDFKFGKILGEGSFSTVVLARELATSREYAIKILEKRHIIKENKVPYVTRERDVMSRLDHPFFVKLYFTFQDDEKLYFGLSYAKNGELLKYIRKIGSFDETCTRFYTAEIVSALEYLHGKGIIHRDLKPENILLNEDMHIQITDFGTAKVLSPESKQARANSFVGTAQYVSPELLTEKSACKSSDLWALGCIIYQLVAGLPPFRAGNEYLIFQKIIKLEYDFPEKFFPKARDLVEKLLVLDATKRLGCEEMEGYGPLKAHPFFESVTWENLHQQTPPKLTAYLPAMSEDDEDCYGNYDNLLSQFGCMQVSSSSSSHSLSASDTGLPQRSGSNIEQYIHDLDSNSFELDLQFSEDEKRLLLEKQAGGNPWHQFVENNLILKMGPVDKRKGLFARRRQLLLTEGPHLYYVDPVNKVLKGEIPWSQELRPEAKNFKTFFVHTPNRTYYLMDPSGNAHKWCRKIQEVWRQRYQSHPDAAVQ

NEK1 = NEK1 (Homo sapiens (Human), UniProt Q96PY6)
CDKL1 = CDKL1 (Homo sapiens (Human), UniProt Q00532)
CDKL1, sequence (Q00532 whole entry): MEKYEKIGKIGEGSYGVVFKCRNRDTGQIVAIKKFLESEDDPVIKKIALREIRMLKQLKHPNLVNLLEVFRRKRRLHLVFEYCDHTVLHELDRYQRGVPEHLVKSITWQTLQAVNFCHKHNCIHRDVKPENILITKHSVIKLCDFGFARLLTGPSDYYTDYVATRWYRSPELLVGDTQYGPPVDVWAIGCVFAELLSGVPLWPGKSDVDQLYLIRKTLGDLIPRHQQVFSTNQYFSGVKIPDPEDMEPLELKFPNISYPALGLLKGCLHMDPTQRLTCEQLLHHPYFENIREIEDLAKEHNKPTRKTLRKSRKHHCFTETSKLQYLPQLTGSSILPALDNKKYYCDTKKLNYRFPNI

ERK8 = ERK8 (Homo sapiens (Human), UniProt Q8TD08)
WNK4 = WNK4 (Homo sapiens (Human), UniProt Q96J92)
BMPR1B = BMPR1B (Homo sapiens (Human), UniProt O00238)
[2] = target: ABL1(F317I)-nonphosphorylated (Homo sapiens (Human), UniProt P00519, F317I)
ABL1(F317I)-nonphosphorylated, sequence (P00519 whole entry F317I): as the sequence (P00519 whole entry E255K) above, with K255E, F317I counted along it

DRAK1 = DRAK1 (Homo sapiens (Human), UniProt Q9UEE5)
DRAK1, sequence (Q9UEE5 whole entry): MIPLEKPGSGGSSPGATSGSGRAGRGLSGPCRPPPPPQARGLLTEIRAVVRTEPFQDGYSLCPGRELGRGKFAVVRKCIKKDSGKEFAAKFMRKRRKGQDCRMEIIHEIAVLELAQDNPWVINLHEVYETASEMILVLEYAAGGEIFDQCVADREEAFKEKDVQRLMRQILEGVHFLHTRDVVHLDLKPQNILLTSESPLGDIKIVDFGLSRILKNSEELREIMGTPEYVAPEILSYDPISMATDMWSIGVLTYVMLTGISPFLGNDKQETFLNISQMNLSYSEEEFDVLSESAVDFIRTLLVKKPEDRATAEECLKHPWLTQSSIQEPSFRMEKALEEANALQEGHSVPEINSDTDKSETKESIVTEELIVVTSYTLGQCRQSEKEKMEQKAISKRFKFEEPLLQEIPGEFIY

PAK6 = PAK6 (Homo sapiens (Human), UniProt Q9NQU5)
WEE1 = WEE1 (Homo sapiens (Human), UniProt P30291)
BUB1 = BUB1 (Homo sapiens (Human), UniProt O43683)
HIPK2 = HIPK2 (Homo sapiens (Human), UniProt Q9H2X6)
WNK2 = WNK2 (Homo sapiens (Human), UniProt Q9Y3S1)
EPHA1 = EPHA1 (Homo sapiens (Human), UniProt P21709)
EPHB3 = EPHB3 (Homo sapiens (Human), UniProt P54753)
EPHB3, sequence (P54753 34-998): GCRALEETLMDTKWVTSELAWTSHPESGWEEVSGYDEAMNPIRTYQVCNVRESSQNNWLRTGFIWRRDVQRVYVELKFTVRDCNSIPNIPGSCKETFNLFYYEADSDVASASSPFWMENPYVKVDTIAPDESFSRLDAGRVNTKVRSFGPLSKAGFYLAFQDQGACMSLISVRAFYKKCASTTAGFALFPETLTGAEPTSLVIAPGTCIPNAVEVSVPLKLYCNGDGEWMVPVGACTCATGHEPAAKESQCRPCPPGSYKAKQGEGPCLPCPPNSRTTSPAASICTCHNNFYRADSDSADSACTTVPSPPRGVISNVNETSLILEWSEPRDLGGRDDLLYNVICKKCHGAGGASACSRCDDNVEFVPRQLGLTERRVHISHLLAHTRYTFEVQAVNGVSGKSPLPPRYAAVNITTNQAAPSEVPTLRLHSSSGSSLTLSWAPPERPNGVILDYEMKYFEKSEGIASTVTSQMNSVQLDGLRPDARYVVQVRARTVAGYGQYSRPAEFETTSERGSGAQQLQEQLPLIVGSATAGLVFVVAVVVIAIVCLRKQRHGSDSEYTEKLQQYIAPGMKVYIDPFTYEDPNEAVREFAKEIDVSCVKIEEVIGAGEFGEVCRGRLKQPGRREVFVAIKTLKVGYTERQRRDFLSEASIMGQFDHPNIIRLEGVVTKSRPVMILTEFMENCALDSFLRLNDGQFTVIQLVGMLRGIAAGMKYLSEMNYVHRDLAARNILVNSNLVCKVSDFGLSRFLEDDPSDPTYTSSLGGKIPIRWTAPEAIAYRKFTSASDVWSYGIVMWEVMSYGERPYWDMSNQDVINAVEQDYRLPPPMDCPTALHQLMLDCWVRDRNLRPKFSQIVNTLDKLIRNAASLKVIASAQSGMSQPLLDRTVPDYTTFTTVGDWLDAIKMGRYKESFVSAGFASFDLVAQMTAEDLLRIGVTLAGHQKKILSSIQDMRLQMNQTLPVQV

DMPK2 = DMPK2 (Homo sapiens (Human), UniProt Q6DT37)
DMPK2, sequence (Q6DT37 whole entry): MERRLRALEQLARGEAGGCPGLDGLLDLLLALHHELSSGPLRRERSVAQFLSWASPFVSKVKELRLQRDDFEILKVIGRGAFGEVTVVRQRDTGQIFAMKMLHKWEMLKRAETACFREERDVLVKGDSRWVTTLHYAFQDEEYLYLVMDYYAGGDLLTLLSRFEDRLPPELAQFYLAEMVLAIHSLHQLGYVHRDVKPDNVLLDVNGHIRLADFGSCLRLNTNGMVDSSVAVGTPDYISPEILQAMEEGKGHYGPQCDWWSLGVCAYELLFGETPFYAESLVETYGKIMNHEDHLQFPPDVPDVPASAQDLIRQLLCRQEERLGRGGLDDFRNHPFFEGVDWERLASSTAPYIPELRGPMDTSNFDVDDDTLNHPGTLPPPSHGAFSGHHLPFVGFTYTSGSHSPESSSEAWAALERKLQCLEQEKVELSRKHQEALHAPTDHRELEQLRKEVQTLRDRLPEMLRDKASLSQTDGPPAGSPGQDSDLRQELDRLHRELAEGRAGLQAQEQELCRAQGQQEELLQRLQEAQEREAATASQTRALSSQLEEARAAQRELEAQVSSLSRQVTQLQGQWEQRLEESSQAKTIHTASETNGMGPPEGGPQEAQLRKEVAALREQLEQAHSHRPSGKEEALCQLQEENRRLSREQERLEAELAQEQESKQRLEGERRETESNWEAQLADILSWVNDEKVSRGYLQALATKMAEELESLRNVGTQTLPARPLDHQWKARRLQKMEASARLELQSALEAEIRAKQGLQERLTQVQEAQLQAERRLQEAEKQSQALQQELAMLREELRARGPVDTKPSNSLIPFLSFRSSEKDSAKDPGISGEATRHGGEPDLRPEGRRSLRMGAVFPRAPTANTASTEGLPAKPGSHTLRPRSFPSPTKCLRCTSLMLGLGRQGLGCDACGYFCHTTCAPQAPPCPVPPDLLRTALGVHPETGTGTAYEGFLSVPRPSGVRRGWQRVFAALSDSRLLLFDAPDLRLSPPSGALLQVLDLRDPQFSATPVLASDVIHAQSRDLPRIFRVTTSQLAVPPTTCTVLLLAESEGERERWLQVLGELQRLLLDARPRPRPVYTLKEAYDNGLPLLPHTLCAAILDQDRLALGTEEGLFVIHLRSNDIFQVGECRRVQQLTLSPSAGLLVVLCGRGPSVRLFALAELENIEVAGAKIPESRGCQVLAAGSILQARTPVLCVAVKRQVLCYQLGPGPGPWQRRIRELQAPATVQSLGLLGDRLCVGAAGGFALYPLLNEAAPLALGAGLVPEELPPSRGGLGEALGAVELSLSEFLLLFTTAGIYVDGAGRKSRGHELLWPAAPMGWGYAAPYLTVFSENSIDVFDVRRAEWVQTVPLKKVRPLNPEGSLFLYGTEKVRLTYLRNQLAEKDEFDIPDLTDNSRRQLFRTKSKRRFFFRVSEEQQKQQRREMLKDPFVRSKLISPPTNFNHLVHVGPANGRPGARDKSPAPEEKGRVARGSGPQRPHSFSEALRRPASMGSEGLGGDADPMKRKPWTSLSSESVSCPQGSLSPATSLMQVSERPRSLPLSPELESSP

RIPK2 = RIPK2 (Homo sapiens (Human), UniProt O43353)
TGFBR2 = TGFBR2 (Homo sapiens (Human), UniProt P37173)

CN(C[C@H](Cc1ccccc1)OP(=O)(O)O)C(=O)c1cncc(C#Cc2cnn(C(F)F)c2)c1 [Example 19, (S)-1-(5-((1-(difluoromethyl)-1H-pyrazol-4-yl)ethynyl)-N-methylnicotinamido)-3-phenylpropan-2-yl dihydrogen phosphate]
remaining activity at 0.1 µM (SRPK3): 100%
remaining activity at 0.1 µM (FGFR4): 100%
remaining activity at 0.1 µM (ALK): 100%
remaining activity at 0.1 µM (CLK4): 100%
remaining activity at 0.1 µM [1]: 91%
remaining activity at 0.1 µM (PIK3CA(C420R)): 86%
remaining activity at 0.1 µM (BLK): 96%
remaining activity at 0.1 µM (CDKL3): 97%
remaining activity at 0.1 µM (CSNK1G1): 100%
remaining activity at 0.1 µM (PIK3CA): 100%
remaining activity at 0.1 µM (PDPK1): 100%
remaining activity at 0.1 µM (NEK1): 100%
remaining activity at 0.1 µM (CDKL1): 100%
remaining activity at 0.1 µM (ERK8): 100%
remaining activity at 0.1 µM (WNK4): 81%
remaining activity at 0.1 µM (BMPR1B): 99%
remaining activity at 0.1 µM [2]: 100%
remaining activity at 0.1 µM (DRAK1): 100%
remaining activity at 0.1 µM (PAK6): 80%
remaining activity at 0.1 µM (WEE1): 100%
remaining activity at 0.1 µM (BUB1): 85%
remaining activity at 0.1 µM (HIPK2): 79%
remaining activity at 0.1 µM (WNK2): 100%
remaining activity at 0.1 µM (EPHA1): 100%
remaining activity at 0.1 µM (EPHB3): 100%
remaining activity at 0.1 µM (DMPK2): 96%
remaining activity at 0.1 µM (RIPK2): 100%
remaining activity at 0.1 µM (TGFBR2): 100%

CN(C[C@@H](O)Cc1ccccc1)C(=O)c1cncc(C#Cc2cnn(C(F)F)c2)c1 [Example 2, (S)-5-((1-(difluoromethyl)-1H-pyrazol-4-yl)ethynyl)-N-(2-hydroxy-3-phenylpropyl)-N-methylnicotinamide]
remaining activity at 0.1 µM (SRPK3; SRPK3): 90%
remaining activity at 0.1 µM (FGFR4; FGFR4): 100%
remaining activity at 0.1 µM (ALK; ALK): 100%
remaining activity at 0.1 µM (CLK4; CLK4): 92%
remaining activity at 0.1 µM ([1]; ABL1(E255K)-phosphorylated): 86%
remaining activity at 0.1 µM (PIK3CA(C420R); PIK3CA(C420R)): 83%
remaining activity at 0.1 µM (BLK; BLK): 85%
remaining activity at 0.1 µM (CDKL3; CDKL3): 100%
remaining activity at 0.1 µM (CSNK1G1; CSNK1G1): 100%
remaining activity at 0.1 µM (PIK3CA; PIK3CA): 100%
remaining activity at 0.1 µM (PDPK1; PDPK1): 99%
remaining activity at 0.1 µM (NEK1; NEK1): 100%
remaining activity at 0.1 µM (CDKL1; CDKL1): 100%
remaining activity at 0.1 µM (ERK8; ERK8): 100%
remaining activity at 0.1 µM (WNK4; WNK4): 84%
remaining activity at 0.1 µM (BMPR1B; BMPR1B): 98%
remaining activity at 0.1 µM ([2]; ABL1(F317I)-nonphosphorylated): 100%
remaining activity at 0.1 µM (DRAK1; DRAK1): 95%
remaining activity at 0.1 µM (PAK6; PAK6): 85%
remaining activity at 0.1 µM (WEE1; WEE1): 92%
remaining activity at 0.1 µM (BUB1; BUB1): 93%
remaining activity at 0.1 µM (HIPK2; HIPK2): 99%
remaining activity at 0.1 µM (WNK2; WNK2): 100%
remaining activity at 0.1 µM (EPHA1; EPHA1): 100%
remaining activity at 0.1 µM (EPHB3; EPHB3): 100%
remaining activity at 0.1 µM (DMPK2; DMPK2): 97%
remaining activity at 0.1 µM (RIPK2; RIPK2): 100%
remaining activity at 0.1 µM (TGFBR2; TGFBR2): 100%
